# According to the supplement of paper PMC10307832:
# Columns and labels:
# Assay in all cases: relative viability (nuclei count vs DMSO), 5 days (fraction); higher = more cells survive
# NCI-H1975 = system: NCI-H1975
# Procedure, shortened: (§1)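 Lung cancer cell lines were pin-tool dosed in 1536-well plates on the day after seeding, with either a lone drug or a fixed anchor-drug dose plus five library-drug doses (not always all listed) in √10 steps. Nuclei were counted on 4× images after 5 days. Relative viability is the ratio of treated-well to vehicle-well nuclei counts, with each value a median of duplicate plates.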
# NCI-H322M = system: NCI-H322M
# Procedure, shortened: as §1
# NCI-H3122 = system: NCI-H3122
# Procedure, shortened: as §1
# NCI-H23 = system: NCI-H23
# Procedure, shortened: as §1
# NCI-H596 = system: NCI-H596
# Procedure, shortened: as §1
# NCI-H727 = system: NCI-H727
# Procedure, shortened: as §1
# BEN = system: BEN
# Procedure, shortened: as §1
# UMC-11 = system: UMC-11
# Procedure, shortened: as §1
# NCI-H2405 = system: NCI-H2405
# Procedure, shortened: as §1
# EPLC-272H = system: EPLC-272H
# Procedure, shortened: as §1
# NCI-H1792 = system: NCI-H1792
# Procedure, shortened: as §1
# NCI-H647 = system: NCI-H647
# Procedure, shortened: as §1
# NCI-H520 = system: NCI-H520
# Procedure, shortened: as §1
# NCI-H2170 = system: NCI-H2170
# Procedure, shortened: as §1
# NCI-H358 = system: NCI-H358
# Procedure, shortened: as §1
# HOP-62 = system: HOP-62
# Procedure, shortened: as §1
# NCI-H1666 = system: NCI-H1666
# Procedure, shortened: as §1
# NCI-H1355 = system: NCI-H1355
# Procedure, shortened: as §1
# LU99A = system: LU99A
# Procedure, shortened: as §1
# NCI-H838 = system: NCI-H838
# Procedure, shortened: as §1
# HCC-827 = system: HCC-827
# Procedure, shortened: as §1
# PC-14 = system: PC-14
# Procedure, shortened: as §1
smiles,measurement,setting,value
O=C(O)CCCCC(CCSCc1ccccc1)SCc1ccccc1 (stereo not given) [CPI-613] + CC(=O)Nc1cccc(-n2c(=O)n(C3CC3)c(=O)c3c(Nc4ccc(I)cc4F)n(C)c(=O)c(C)c32)c1 [Trametinib] (partner 0.02 µM),relative viability,NCI-H1975; first compound 5 µM,0.395
same,relative viability,NCI-H1975; first compound 15.81 µM,0.355
same,relative viability,NCI-H1975; first compound 50 µM,0.272
same,relative viability,NCI-H1975; first compound 158.11 µM,0.348
same,relative viability,NCI-H1975; first compound 500 µM,0.0712
same,relative viability,NCI-H322M; first compound 5 µM,0.427
same,relative viability,NCI-H322M; first compound 15.81 µM,0.485
same,relative viability,NCI-H322M; first compound 50 µM,0.454
same,relative viability,NCI-H322M; first compound 158.11 µM,0.516
same,relative viability,NCI-H322M; first compound 500 µM,0.514
same,relative viability,NCI-H3122; first compound 5 µM,0.232
same,relative viability,NCI-H3122; first compound 15.81 µM,0.25
same,relative viability,NCI-H3122; first compound 50 µM,0.295
same,relative viability,NCI-H3122; first compound 158.11 µM,0.215
same,relative viability,NCI-H3122; first compound 500 µM,0.227
same,relative viability,NCI-H23; first compound 5 µM,0.394
same,relative viability,NCI-H23; first compound 15.81 µM,0.25
same,relative viability,NCI-H23; first compound 50 µM,0.393
same,relative viability,NCI-H23; first compound 158.11 µM,0.11
same,relative viability,NCI-H23; first compound 500 µM,0.0106
same,relative viability,NCI-H596; first compound 5 µM,0.823
same,relative viability,NCI-H596; first compound 15.81 µM,0.732
same,relative viability,NCI-H596; first compound 50 µM,0.765
same,relative viability,NCI-H596; first compound 158.11 µM,0.34
same,relative viability,NCI-H596; first compound 500 µM,0.036
same,relative viability,NCI-H727; first compound 5 µM,0.393
same,relative viability,NCI-H727; first compound 15.81 µM,0.389
same,relative viability,NCI-H727; first compound 50 µM,0.396
same,relative viability,NCI-H727; first compound 158.11 µM,0.374
same,relative viability,NCI-H727; first compound 500 µM,0.339
same,relative viability,BEN; first compound 5 µM,1.14
same,relative viability,BEN; first compound 15.81 µM,0.976
same,relative viability,BEN; first compound 50 µM,0.958
same,relative viability,BEN; first compound 158.11 µM,0.804
same,relative viability,BEN; first compound 500 µM,0.905
same,relative viability,UMC-11; first compound 5 µM,0.632
same,relative viability,UMC-11; first compound 15.81 µM,0.703
same,relative viability,UMC-11; first compound 50 µM,0.437
same,relative viability,UMC-11; first compound 158.11 µM,0.495
same,relative viability,UMC-11; first compound 500 µM,0.0937
same,relative viability,NCI-H2405; first compound 5 µM,0.633
same,relative viability,NCI-H2405; first compound 15.81 µM,0.633
same,relative viability,NCI-H2405; first compound 50 µM,0.619
same,relative viability,NCI-H2405; first compound 158.11 µM,0.494
same,relative viability,NCI-H2405; first compound 500 µM,0.479
same,relative viability,EPLC-272H; first compound 5 µM,0.233
same,relative viability,EPLC-272H; first compound 15.81 µM,0.232
same,relative viability,EPLC-272H; first compound 50 µM,0.29
same,relative viability,EPLC-272H; first compound 158.11 µM,0.222
same,relative viability,EPLC-272H; first compound 500 µM,0.268
same,relative viability,NCI-H1792; first compound 5 µM,0.381
same,relative viability,NCI-H1792; first compound 15.81 µM,0.372
same,relative viability,NCI-H1792; first compound 50 µM,0.355
same,relative viability,NCI-H1792; first compound 158.11 µM,0.291
same,relative viability,NCI-H1792; first compound 500 µM,0.0761
same,relative viability,NCI-H647; first compound 5 µM,0.378
same,relative viability,NCI-H647; first compound 15.81 µM,0.388
same,relative viability,NCI-H647; first compound 50 µM,0.38
same,relative viability,NCI-H647; first compound 158.11 µM,0.0824
same,relative viability,NCI-H647; first compound 500 µM,0.0504
same,relative viability,NCI-H520; first compound 5 µM,0.691
same,relative viability,NCI-H520; first compound 15.81 µM,0.708
same,relative viability,NCI-H520; first compound 50 µM,0.552
same,relative viability,NCI-H520; first compound 158.11 µM,0.16
same,relative viability,NCI-H520; first compound 500 µM,0.0957
same,relative viability,NCI-H2170; first compound 5 µM,0.95
same,relative viability,NCI-H2170; first compound 15.81 µM,0.968
same,relative viability,NCI-H2170; first compound 50 µM,0.892
same,relative viability,NCI-H2170; first compound 158.11 µM,0.686
same,relative viability,NCI-H2170; first compound 500 µM,0.546
same,relative viability,NCI-H358; first compound 5 µM,0.132
same,relative viability,NCI-H358; first compound 15.81 µM,0.133
same,relative viability,NCI-H358; first compound 50 µM,0.132
same,relative viability,NCI-H358; first compound 158.11 µM,0.0921
same,relative viability,NCI-H358; first compound 500 µM,0.0459
same,relative viability,HOP-62; first compound 5 µM,0.394
same,relative viability,HOP-62; first compound 15.81 µM,0.402
same,relative viability,HOP-62; first compound 50 µM,0.351
same,relative viability,HOP-62; first compound 158.11 µM,0.267
same,relative viability,HOP-62; first compound 500 µM,0.129
same,relative viability,NCI-H1666; first compound 5 µM,0.888
same,relative viability,NCI-H1666; first compound 15.81 µM,0.821
same,relative viability,NCI-H1666; first compound 50 µM,0.796
same,relative viability,NCI-H1666; first compound 158.11 µM,0.488
same,relative viability,NCI-H1666; first compound 500 µM,0.394
same,relative viability,NCI-H1355; first compound 5 µM,0.44
same,relative viability,NCI-H1355; first compound 15.81 µM,0.409
same,relative viability,NCI-H1355; first compound 50 µM,0.42
same,relative viability,NCI-H1355; first compound 158.11 µM,0.27
same,relative viability,NCI-H1355; first compound 500 µM,0.112
same,relative viability,LU99A; first compound 5 µM,0.51
same,relative viability,LU99A; first compound 15.81 µM,0.524
same,relative viability,LU99A; first compound 50 µM,0.461
same,relative viability,LU99A; first compound 158.11 µM,0.338
same,relative viability,LU99A; first compound 500 µM,0.357
same,relative viability,NCI-H838; first compound 5 µM,0.514
same,relative viability,NCI-H838; first compound 15.81 µM,0.461
same,relative viability,NCI-H838; first compound 50 µM,0.468
same,relative viability,NCI-H838; first compound 158.11 µM,0.232
same,relative viability,NCI-H838; first compound 500 µM,0.065
same,relative viability,HCC-827; first compound 5 µM,0.518
same,relative viability,HCC-827; first compound 15.81 µM,0.555
same,relative viability,HCC-827; first compound 50 µM,0.571
same,relative viability,HCC-827; first compound 158.11 µM,0.518
same,relative viability,HCC-827; first compound 500 µM,0.483
same,relative viability,PC-14; first compound 5 µM,0.651
same,relative viability,PC-14; first compound 15.81 µM,0.549
same,relative viability,PC-14; first compound 50 µM,0.72
same,relative viability,PC-14; first compound 158.11 µM,0.108
same,relative viability,PC-14; first compound 500 µM,0.0098
